From patent publication US5451564A, “Antimicrobial composition comprising N-hydroxy heterocyclic thiones” (priority 1991, dated 1995)
Where two headings read alike, the source gives them in different places.

How the values were obtained:
[1] = aqueous solubility of zinc complex after milling in pyrophosphate solution and dilution with distilled water until clear; type: physicochemical
Procedure: The concentration of the 2:1 zinc complex was then determined.
The zinc complex was milled in a 0.1 molar solution of tetrasodium pyrophosphate as described in Example 1. This was then diluted with distilled water until a clear solution was obtained.
These solutions were prepared by the method described in Example 1.

[2] = tested on: mixed suspension of Pseudomonas aeruginosa, Proteus rettgeri, Serratia marcescans, Aeromonas hydrophila, Alcaligenes species, Pseudomonas cepacia and …; experiment: repeated bacterial challenge test in acrylic (emulsion) paint; type: cell-based, mixed bacteria; set-up: key: 5: Confluent growth; 4: Heavy growth; 3: Moderate growth; 2: Slight growth; 1: Trace growth; 0: No growth
Procedure: (§1) An inoculum was prepared containing Pseudomonas aeruginosa, Proteus rettgeri, Serratia marcescans, Aeromonas hydrophila, Alcaligenes species, Pseudomonas cepacia and Pseudomonas putida by culturing the individual organisms onto nutrient agar and incubating for 24 hours at 30° C. Each of the individual suspensions of the test organisms were then prepared at a concentration of 10E8 cfu/ml in one quarter strength Ringer's solution by means of a Thoma counting chamber. A mixed suspension was obtained by mixing equal volumes of the individual suspensions. This procedure was repeated for each of the three challenges to which the test substrates were subjected, and the concentration of micro-organisms in each substrate after challenge was 2×10E6 cfu/ml.
(§2) Aliquots (50 parts) of a standard laboratory acrylic latex and an emulsion paint were prepared containing 0, 10, 25, 50, 100, 125, 250, 500 and 750 ppm of the 1:2 zinc complex of 3-hydroxy-4-methylthiazol-2(3H)thione which was prepared as a 1% dispersion in an aqueous solution of 0.1M tetrasodium pyrophosphate. A 1% dispersion of the 1:2 zinc complex of 1-hydroxy-2-pyridinethiol in an aqueous solution of 0.1M tetrasodiumpyrophosphate was evaluated in the same manner.
(§3) The test substrates were then stored at 40° C. for seven days and were then challenged on three separate occasions with 1 part by volume of the mixed suspension of micro-organisms. All the substrates were then incubated at 30° C. and examined for the presence of viable bacteria after 1, 3 and 7 days after each challenge (Phase 1).
(§4) Those samples which had achieved sterility were then stored for a further 8 weeks at 30° C., and were then rechallenged and the number of viable organisms again determined (Phase 2).
(§5) Viable bacteria were detected by streaking small aliquots onto nutrient agar followed by incubation at 30° C. for 2 days. The presence or absence of colonies was determined visually. […]

[3] = tested on: mixed suspension of Pseudomonas aeruginosa, Proteus rettgeri, Serratia marcescans, Aeromonas hydrophila, Alcaligenes species, Pseudomonas cepacia and …; type: cell-based, mixed bacteria; set-up: key: 5: Confluent growth; 4: Heavy growth; 3: Moderate growth; 2: Slight growth; 1: Trace growth; 0: No growth
Procedure: as §1, §2, §3, §4, §5

## Cc1csc(=S)n1[O-].Cc1csc(=S)n1[O-].[Zn+2] [Compound A, 1:2 zinc complex of 3-hydroxy-4-methylthiazol-2(3H)thione]
[1]; finely milled sample, no pyrophosphate
  aqueous solubility: about 5 ppm
[1]; milled in 0.1 molar tetrasodium pyrophosphate, diluted with distilled water
  solubility in the presence of the pyrophosphate anion: about 10,000 ppm
[2]; paint 10 ppm, Phase 1 Chall 1, day 1
  growth rating: 5
[2]; paint 10 ppm, Phase 1 Chall 1, day 3
  growth rating: 5
[2]; paint 10 ppm, Phase 1 Chall 1, day 7
  growth rating: 0
[2]; paint 10 ppm, Phase 1 Chall 2, day 1
  growth rating: 5
[2]; paint 10 ppm, Phase 1 Chall 2, day 3
  growth rating: 5
[2]; paint 10 ppm, Phase 1 Chall 2, day 7
  growth rating: 5
[2]; paint 10 ppm, Phase 1 Chall 3, day 1
  growth rating: 5
[2]; paint 10 ppm, Phase 1 Chall 3, day 3
  growth rating: 5
[2]; paint 10 ppm, Phase 1 Chall 3, day 7
  growth rating: 5
[2]; paint 25 ppm, Phase 1 Chall 1, day 1
  growth rating: 5
[2]; paint 25 ppm, Phase 1 Chall 1, day 3
  growth rating: 3
[2]; paint 25 ppm, Phase 1 Chall 1, day 7
  growth rating: 0
[2]; paint 25 ppm, Phase 1 Chall 2, day 1
  growth rating: 5
[2]; paint 25 ppm, Phase 1 Chall 2, day 3
  growth rating: 4
[2]; paint 25 ppm, Phase 1 Chall 2, day 7
  growth rating: 0
[2]; paint 25 ppm, Phase 1 Chall 3, day 1
  growth rating: 5
[2]; paint 25 ppm, Phase 1 Chall 3, day 3
  growth rating: 5
[2]; paint 25 ppm, Phase 1 Chall 3, day 7
  growth rating: 4
[2]; paint 50 ppm, Phase 1 Chall 1, day 1
  growth rating: 5
[2]; paint 50 ppm, Phase 1 Chall 1, day 3
  growth rating: 3
[2]; paint 50 ppm, Phase 1 Chall 1, day 7
  growth rating: 0
[2]; paint 50 ppm, Phase 1 Chall 2, day 1
  growth rating: 5
[2]; paint 50 ppm, Phase 1 Chall 2, day 3
  growth rating: 4
[2]; paint 50 ppm, Phase 1 Chall 2, day 7
  growth rating: 0
[2]; paint 50 ppm, Phase 1 Chall 3, day 1
  growth rating: 5
[2]; paint 50 ppm, Phase 1 Chall 3, day 3
  growth rating: 4
[2]; paint 50 ppm, Phase 1 Chall 3, day 7
  growth rating: 0
[2]; paint 100 ppm, Phase 1 Chall 1, day 1
  growth rating: 5
[3]; latex 10 ppm, Phase 1 Chall 1, day 1
  growth rating: 5
[3]; latex 10 ppm, Phase 1 Chall 1, day 3
  growth rating: 5
[3]; latex 10 ppm, Phase 1 Chall 1, day 7
  growth rating: 4
[3]; latex 10 ppm, Phase 1 Chall 2, day 1
  growth rating: 5
[3]; latex 10 ppm, Phase 1 Chall 2, day 3
  growth rating: 5
[3]; latex 10 ppm, Phase 1 Chall 2, day 7
  growth rating: 5
[3]; latex 10 ppm, Phase 1 Chall 3, day 1
  growth rating: 5
[3]; latex 10 ppm, Phase 1 Chall 3, day 3
  growth rating: 5
[3]; latex 10 ppm, Phase 1 Chall 3, day 7
  growth rating: 5
[3]; latex 25 ppm, Phase 1 Chall 1, day 1
  growth rating: 5
[3]; latex 25 ppm, Phase 1 Chall 1, day 3
  growth rating: 5
[3]; latex 25 ppm, Phase 1 Chall 1, day 7
  growth rating: 4
[3]; latex 25 ppm, Phase 1 Chall 2, day 1
  growth rating: 5
[3]; latex 25 ppm, Phase 1 Chall 2, day 3
  growth rating: 5
[3]; latex 25 ppm, Phase 1 Chall 2, day 7
  growth rating: 3
[3]; latex 25 ppm, Phase 1 Chall 3, day 1
  growth rating: 5
[3]; latex 25 ppm, Phase 1 Chall 3, day 3
  growth rating: 5
[3]; latex 25 ppm, Phase 1 Chall 3, day 7
  growth rating: 5
[3]; latex 50 ppm, Phase 1 Chall 1, day 1
  growth rating: 5
[3]; latex 50 ppm, Phase 1 Chall 1, day 3
  growth rating: 2
[3]; latex 50 ppm, Phase 1 Chall 1, day 7
  growth rating: 2
[3]; latex 50 ppm, Phase 1 Chall 2, day 1
  growth rating: 5
[3]; latex 50 ppm, Phase 1 Chall 2, day 3
  growth rating: 4
[3]; latex 50 ppm, Phase 1 Chall 2, day 7
  growth rating: 0
[3]; latex 50 ppm, Phase 1 Chall 3, day 1
  growth rating: 5
[3]; latex 50 ppm, Phase 1 Chall 3, day 3
  growth rating: 4
[3]; latex 50 ppm, Phase 1 Chall 3, day 7
  growth rating: 0
[3]; latex 100 ppm, Phase 1 Chall 1, day 1
  growth rating: 5
[3]; latex 100 ppm, Phase 1 Chall 1, day 3
  growth rating: 3
[3]; latex 100 ppm, Phase 1 Chall 1, day 7
  growth rating: 0
[3]; latex 100 ppm, Phase 1 Chall 2, day 1
  growth rating: 4
[3]; latex 100 ppm, Phase 1 Chall 2, day 3
  growth rating: 4
[3]; latex 100 ppm, Phase 1 Chall 2, day 7
  growth rating: 0
[3]; latex 100 ppm, Phase 1 Chall 3, day 1
  growth rating: 4
[3]; latex 100 ppm, Phase 1 Chall 3, day 3
  growth rating: 4
[3]; latex 100 ppm, Phase 1 Chall 3, day 7
  growth rating: 0
[3]; latex 125 ppm, Phase 1 Chall 1, day 1
  growth rating: 5
[3]; latex 125 ppm, Phase 1 Chall 1, day 3
  growth rating: 3
[3]; latex 125 ppm, Phase 1 Chall 1, day 7
  growth rating: 0
[3]; latex 125 ppm, Phase 1 Chall 2, day 1
  growth rating: 4
[3]; latex 125 ppm, Phase 1 Chall 2, day 3
  growth rating: 4
[3]; latex 125 ppm, Phase 1 Chall 2, day 7
  growth rating: 0
[3]; latex 125 ppm, Phase 1 Chall 3, day 1
  growth rating: 4
[3]; latex 125 ppm, Phase 1 Chall 3, day 3
  growth rating: 4
[3]; latex 125 ppm, Phase 1 Chall 3, day 7
  growth rating: 0
[3]; latex 250 ppm, Phase 1 Chall 1, day 1
  growth rating: 5
[3]; latex 250 ppm, Phase 1 Chall 1, day 3
  growth rating: 3
[3]; latex 250 ppm, Phase 1 Chall 1, day 7
  growth rating: 0
[3]; latex 250 ppm, Phase 1 Chall 2, day 1
  growth rating: 4
[3]; latex 250 ppm, Phase 1 Chall 2, day 3
  growth rating: 4
[3]; latex 250 ppm, Phase 1 Chall 2, day 7
  growth rating: 0
[3]; latex 250 ppm, Phase 1 Chall 3, day 1
  growth rating: 4
[3]; latex 250 ppm, Phase 1 Chall 3, day 3
  growth rating: 4
[3]; latex 250 ppm, Phase 1 Chall 3, day 7
  growth rating: 0
[3]; latex 500 ppm, Phase 1 Chall 1, day 1
  growth rating: 5
[3]; latex 500 ppm, Phase 1 Chall 1, day 3
  growth rating: 3
[3]; latex 500 ppm, Phase 1 Chall 1, day 7
  growth rating: 0
[3]; latex 500 ppm, Phase 1 Chall 2, day 1
  growth rating: 4
[3]; latex 500 ppm, Phase 1 Chall 2, day 3
  growth rating: 4
[3]; latex 500 ppm, Phase 1 Chall 2, day 7
  growth rating: 0
[3]; latex 500 ppm, Phase 1 Chall 3, day 1
  growth rating: 3
[3]; latex 500 ppm, Phase 1 Chall 3, day 3
  growth rating: 2
[3]; latex 500 ppm, Phase 1 Chall 3, day 7
  growth rating: 0
[3]; latex 750 ppm, Phase 1 Chall 1, day 1
  growth rating: 4
[3]; latex 750 ppm, Phase 1 Chall 1, day 3
  growth rating: 2
[3]; latex 750 ppm, Phase 1 Chall 1, day 7
  growth rating: 0
[3]; latex 750 ppm, Phase 1 Chall 2, day 1
  growth rating: 3
[3]; latex 750 ppm, Phase 1 Chall 2, day 3
  growth rating: 3
[3]; latex 750 ppm, Phase 1 Chall 2, day 7
  growth rating: 0
[3]; latex 750 ppm, Phase 1 Chall 3, day 1
  growth rating: 2
[3]; latex 750 ppm, Phase 1 Chall 3, day 3
  growth rating: 0
[3]; latex 750 ppm, Phase 1 Chall 3, day 7
  growth rating: 0
